Laboratory results: ChEMBL document CHEMBL1201862, “PubChem BioAssay data set” (2004)
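48-hour exposure; five concentrations; linearly interpolated endpoints. GI50 marks 50% less growth.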 Calls of active or inactive are those of the source. Cut-off read from the data, not from the text of the source: active = GI50 up to about 1.1 µM and inactive = higher.

What was measured:
Assay in all cases: growth of human tumour cells (NCI), 48 h
786-0 = test system: 786-0
U-251 = test system: U-251
DU-145 = test system: DU-145
OVCAR-8 = test system: OVCAR-8
UACC-257 = test system: UACC-257
Hs-578T = test system: Hs-578T
SNB-75 = test system: SNB-75
K562 = test system: K562
HOP-92 = test system: HOP-92
SK-MEL-5 = test system: SK-MEL-5
UACC-62 = test system: UACC-62
SW-620 = test system: SW-620
NCI-H460 = test system: NCI-H460
OVCAR-5 = test system: OVCAR-5
COLO 205 = test system: COLO 205
A549 = test system: A549
RXF 393 = test system: RXF 393
NCI/ADR-RES = test system: NCI/ADR-RES
SK-MEL-2 = test system: SK-MEL-2
KM12 = test system: KM12
SF-295 = test system: SF-295
SF-268 = test system: SF-268
MDA-MB-231 = test system: MDA-MB-231
PC-3 = test system: PC-3
EKVX = test system: EKVX
A498 = test system: A498
LOX IMVI = test system: LOX IMVI
MCF7 = test system: MCF7
SNB-19 = test system: SNB-19
HCC 2998 = test system: HCC 2998
CAKI-1 = test system: CAKI-1
M14 = test system: M14
T47D = test system: T47D
NCI-H226 = test system: NCI-H226
HOP-62 = test system: HOP-62
NCI-H522 = test system: NCI-H522
RPMI-8226 = test system: RPMI-8226
SN12C = test system: SN12C
IGROV-1 = test system: IGROV-1
MDA-MB-435 = test system: MDA-MB-435
UO-31 = test system: UO-31
Malme-3M = test system: Malme-3M
SK-MEL-28 = test system: SK-MEL-28
OVCAR-4 = test system: OVCAR-4
MDA-N = test system: MDA-N
TK-10 = test system: TK-10
ACHN = test system: ACHN
BT-549 = test system: BT-549
SK-OV-3 = test system: SK-OV-3
SF-539 = test system: SF-539
NCI-H23 = test system: NCI-H23
HT-29 = test system: HT-29
HCT-116 = test system: HCT-116
MOLT-4 = test system: MOLT-4
OVCAR-3 = test system: OVCAR-3
HCT-15 = test system: HCT-15
HL-60 = test system: HL-60
CCRF-CEM = test system: CCRF-CEM

Measured: GI50

O=C(Nc1ncc([N+](=O)[O-])s1)c1ccccc1O [TIZOXANIDE]
inactive: 786-0 24.4 µM | U-251 14.9 µM | DU-145 21 µM | OVCAR-8 17.9 µM | UACC-257 20.7 µM | Hs-578T 6.58 µM | SNB-75 18.1 µM | K562 28.2 µM | HOP-92 2.74 µM | SK-MEL-5 15.2 µM | UACC-62 4.66 µM | SW-620 34.1 µM | NCI-H460 18 µM | OVCAR-5 32.9 µM | COLO 205 15.2 µM | A549 19.3 µM | RXF 393 3.39 µM | NCI/ADR-RES 13.6 µM | SK-MEL-2 12.5 µM | KM12 15.3 µM | SF-295 7.89 µM | SF-268 13.6 µM | MDA-MB-231 23.5 µM | PC-3 11.9 µM | EKVX 16.5 µM | A498 8.75 µM | LOX IMVI 24.6 µM | MCF7 13.7 µM | SNB-19 16.2 µM | HCC 2998 13.6 µM | CAKI-1 29.6 µM | M14 20 µM | T47D 28.3 µM | NCI-H226 7.55 µM | HOP-62 20 µM | NCI-H522 3.13 µM | RPMI-8226 7 µM | SN12C 17.5 µM | IGROV-1 23.6 µM | MDA-MB-435 22.6 µM | UO-31 23.7 µM | Malme-3M 12.9 µM | SK-MEL-28 26.4 µM | OVCAR-4 38.3 µM | MDA-N 27 µM | TK-10 21.4 µM | ACHN 18.7 µM | BT-549 19.1 µM | SK-OV-3 12.2 µM | SF-539 45 µM | NCI-H23 12.5 µM | HT-29 14.5 µM | HCT-116 11.1 µM | MOLT-4 18.5 µM | OVCAR-3 6.84 µM
19.1 µM: HCT-15

C[C@H](CCC(=O)O)[C@H]1CC[C@H]2[C@@H]3CC[C@@H]4C[C@H](O)CC[C@]4(C)[C@H]3C[C@H](O)[C@]12C [DEOXYCHOLIC ACID]
inactive: 786-0 45.8 µM | U-251 30.7 µM | DU-145 65.6 µM | OVCAR-8 39.4 µM | UACC-257 92.3 µM | Hs-578T 40.7 µM | HL-60 30.1 µM | SNB-75 37.1 µM | K562 36.6 µM | SK-MEL-5 37.8 µM | UACC-62 37.5 µM | SW-620 47.8 µM | NCI-H460 40.7 µM | OVCAR-5 44.7 µM | COLO 205 27.9 µM | A549 35.9 µM | RXF 393 52.4 µM | NCI/ADR-RES 44.5 µM | SK-MEL-2 31.2 µM | KM12 49.4 µM | SF-295 17.8 µM | SF-268 40.1 µM | MDA-MB-231 41.5 µM | PC-3 33.6 µM | EKVX 31.4 µM | A498 41.2 µM | LOX IMVI 40.8 µM | MCF7 36.2 µM | SNB-19 40.1 µM | HCC 2998 61.2 µM | CAKI-1 69.5 µM | M14 34.3 µM | T47D 31.4 µM | NCI-H226 95.1 µM | HOP-62 26.4 µM | NCI-H522 28 µM | RPMI-8226 25.8 µM | SN12C 34 µM | IGROV-1 27.9 µM | MDA-MB-435 42.2 µM | UO-31 37.6 µM | Malme-3M 32.8 µM | SK-MEL-28 63.1 µM | OVCAR-4 49.7 µM | MDA-N 42.2 µM | TK-10 > 100 µM | ACHN 37.8 µM | BT-549 48.4 µM | SK-OV-3 26.7 µM | SF-539 48 µM | CCRF-CEM 23.9 µM | NCI-H23 39.7 µM | HT-29 34.1 µM | HCT-116 32.9 µM | MOLT-4 26.5 µM | OVCAR-3 20.4 µM
36.1 µM: HCT-15

O=C(Oc1c(Cl)cc(C2(c3cc(Cl)c(OC(=O)c4ccccc4)c(Cl)c3)CCCCC2)cc1Cl)c1ccccc1
inactive: 786-0 14.1 µM | U-251 13.8 µM | DU-145 12.2 µM | OVCAR-8 15.9 µM | UACC-257 12.7 µM | Hs-578T 14.8 µM | HL-60 3.32 µM | SNB-75 11.7 µM | K562 7.96 µM | HOP-92 8.45 µM | SK-MEL-5 10.6 µM | UACC-62 10.5 µM | SW-620 16.2 µM | NCI-H460 6.65 µM | OVCAR-5 14 µM | COLO 205 5.78 µM | A549 12.3 µM | RXF 393 11.5 µM | NCI/ADR-RES 11.6 µM | SK-MEL-2 11.2 µM | KM12 5.08 µM | SF-295 13.4 µM | SF-268 12.6 µM | MDA-MB-231 13.7 µM | PC-3 9.42 µM | EKVX 11.1 µM | A498 11.4 µM | LOX IMVI 14.2 µM | MCF7 11.1 µM | SNB-19 17.6 µM | HCC 2998 10.1 µM | CAKI-1 5.01 µM | M14 14.5 µM | T47D 11 µM | NCI-H226 16.3 µM | HOP-62 12.4 µM | NCI-H522 13.7 µM | RPMI-8226 11.9 µM | SN12C 13.2 µM | IGROV-1 10.6 µM | MDA-MB-435 10.1 µM | UO-31 18.5 µM | SK-MEL-28 14.7 µM | OVCAR-4 10.9 µM | MDA-N 12.7 µM | TK-10 16.7 µM | ACHN 5.15 µM | BT-549 14.7 µM | SK-OV-3 15.5 µM | SF-539 14.3 µM | CCRF-CEM 8 µM | NCI-H23 10.4 µM | HT-29 14.6 µM | HCT-116 13.2 µM | MOLT-4 5 µM | OVCAR-3 10.9 µM
11.9 µM: HCT-15
